These results are taken from patent US12441726B2, “Compounds and uses thereof” (Foghorn Therapeutics Inc., priority 2020, dated 2025).

SMILES strings stand for the structures.

Chain of BRG-1 (P51532 whole entry): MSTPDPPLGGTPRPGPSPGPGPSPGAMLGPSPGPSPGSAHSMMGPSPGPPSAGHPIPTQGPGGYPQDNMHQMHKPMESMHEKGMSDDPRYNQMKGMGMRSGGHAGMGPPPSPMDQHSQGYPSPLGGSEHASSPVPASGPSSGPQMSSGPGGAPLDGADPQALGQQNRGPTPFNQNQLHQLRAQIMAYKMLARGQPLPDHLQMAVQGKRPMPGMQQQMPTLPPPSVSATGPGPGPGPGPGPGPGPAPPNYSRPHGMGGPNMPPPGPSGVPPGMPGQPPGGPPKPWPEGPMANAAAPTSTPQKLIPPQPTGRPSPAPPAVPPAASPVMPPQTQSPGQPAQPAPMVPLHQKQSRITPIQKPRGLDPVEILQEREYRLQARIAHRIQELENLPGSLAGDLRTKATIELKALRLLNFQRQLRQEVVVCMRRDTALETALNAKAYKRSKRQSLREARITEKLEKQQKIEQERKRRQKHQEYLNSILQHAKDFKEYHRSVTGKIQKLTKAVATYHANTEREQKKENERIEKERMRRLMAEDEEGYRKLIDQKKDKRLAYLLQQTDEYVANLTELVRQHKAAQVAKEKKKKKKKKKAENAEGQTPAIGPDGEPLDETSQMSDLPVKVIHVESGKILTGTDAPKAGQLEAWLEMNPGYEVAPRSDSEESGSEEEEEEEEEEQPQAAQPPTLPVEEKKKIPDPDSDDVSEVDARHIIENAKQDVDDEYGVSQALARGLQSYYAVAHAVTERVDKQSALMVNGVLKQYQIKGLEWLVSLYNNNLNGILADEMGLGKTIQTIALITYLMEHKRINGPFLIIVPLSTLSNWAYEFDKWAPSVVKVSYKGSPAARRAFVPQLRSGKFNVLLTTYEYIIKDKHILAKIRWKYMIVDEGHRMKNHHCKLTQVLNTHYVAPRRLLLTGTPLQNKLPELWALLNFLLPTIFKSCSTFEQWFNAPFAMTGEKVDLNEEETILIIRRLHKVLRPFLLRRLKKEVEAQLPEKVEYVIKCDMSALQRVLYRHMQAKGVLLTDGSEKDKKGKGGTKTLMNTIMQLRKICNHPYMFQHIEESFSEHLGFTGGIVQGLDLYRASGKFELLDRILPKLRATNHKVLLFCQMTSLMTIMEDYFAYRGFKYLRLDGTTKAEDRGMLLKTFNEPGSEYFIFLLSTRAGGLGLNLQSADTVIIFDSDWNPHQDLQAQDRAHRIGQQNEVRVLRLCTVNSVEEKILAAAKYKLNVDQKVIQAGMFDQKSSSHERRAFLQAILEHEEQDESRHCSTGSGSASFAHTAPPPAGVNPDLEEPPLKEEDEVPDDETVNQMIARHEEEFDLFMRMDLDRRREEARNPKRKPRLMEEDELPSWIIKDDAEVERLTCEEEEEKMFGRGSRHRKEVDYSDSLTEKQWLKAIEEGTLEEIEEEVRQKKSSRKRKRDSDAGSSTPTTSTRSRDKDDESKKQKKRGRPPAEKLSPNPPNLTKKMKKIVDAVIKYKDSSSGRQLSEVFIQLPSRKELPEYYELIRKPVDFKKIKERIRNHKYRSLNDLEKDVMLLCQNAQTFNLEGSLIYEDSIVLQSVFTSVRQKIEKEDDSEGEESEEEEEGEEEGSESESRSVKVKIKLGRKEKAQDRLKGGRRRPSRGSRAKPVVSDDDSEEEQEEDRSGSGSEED

For the first assay, the target named is BRM (Homo sapiens, UniProt P51531). Kind of assay: ATPase catalytic activity assay (ADP-Glo), BRM. The conditions noted are these: 30 nM BRM, 400 μM ATP.
Chain of BRM (P51531 whole entry): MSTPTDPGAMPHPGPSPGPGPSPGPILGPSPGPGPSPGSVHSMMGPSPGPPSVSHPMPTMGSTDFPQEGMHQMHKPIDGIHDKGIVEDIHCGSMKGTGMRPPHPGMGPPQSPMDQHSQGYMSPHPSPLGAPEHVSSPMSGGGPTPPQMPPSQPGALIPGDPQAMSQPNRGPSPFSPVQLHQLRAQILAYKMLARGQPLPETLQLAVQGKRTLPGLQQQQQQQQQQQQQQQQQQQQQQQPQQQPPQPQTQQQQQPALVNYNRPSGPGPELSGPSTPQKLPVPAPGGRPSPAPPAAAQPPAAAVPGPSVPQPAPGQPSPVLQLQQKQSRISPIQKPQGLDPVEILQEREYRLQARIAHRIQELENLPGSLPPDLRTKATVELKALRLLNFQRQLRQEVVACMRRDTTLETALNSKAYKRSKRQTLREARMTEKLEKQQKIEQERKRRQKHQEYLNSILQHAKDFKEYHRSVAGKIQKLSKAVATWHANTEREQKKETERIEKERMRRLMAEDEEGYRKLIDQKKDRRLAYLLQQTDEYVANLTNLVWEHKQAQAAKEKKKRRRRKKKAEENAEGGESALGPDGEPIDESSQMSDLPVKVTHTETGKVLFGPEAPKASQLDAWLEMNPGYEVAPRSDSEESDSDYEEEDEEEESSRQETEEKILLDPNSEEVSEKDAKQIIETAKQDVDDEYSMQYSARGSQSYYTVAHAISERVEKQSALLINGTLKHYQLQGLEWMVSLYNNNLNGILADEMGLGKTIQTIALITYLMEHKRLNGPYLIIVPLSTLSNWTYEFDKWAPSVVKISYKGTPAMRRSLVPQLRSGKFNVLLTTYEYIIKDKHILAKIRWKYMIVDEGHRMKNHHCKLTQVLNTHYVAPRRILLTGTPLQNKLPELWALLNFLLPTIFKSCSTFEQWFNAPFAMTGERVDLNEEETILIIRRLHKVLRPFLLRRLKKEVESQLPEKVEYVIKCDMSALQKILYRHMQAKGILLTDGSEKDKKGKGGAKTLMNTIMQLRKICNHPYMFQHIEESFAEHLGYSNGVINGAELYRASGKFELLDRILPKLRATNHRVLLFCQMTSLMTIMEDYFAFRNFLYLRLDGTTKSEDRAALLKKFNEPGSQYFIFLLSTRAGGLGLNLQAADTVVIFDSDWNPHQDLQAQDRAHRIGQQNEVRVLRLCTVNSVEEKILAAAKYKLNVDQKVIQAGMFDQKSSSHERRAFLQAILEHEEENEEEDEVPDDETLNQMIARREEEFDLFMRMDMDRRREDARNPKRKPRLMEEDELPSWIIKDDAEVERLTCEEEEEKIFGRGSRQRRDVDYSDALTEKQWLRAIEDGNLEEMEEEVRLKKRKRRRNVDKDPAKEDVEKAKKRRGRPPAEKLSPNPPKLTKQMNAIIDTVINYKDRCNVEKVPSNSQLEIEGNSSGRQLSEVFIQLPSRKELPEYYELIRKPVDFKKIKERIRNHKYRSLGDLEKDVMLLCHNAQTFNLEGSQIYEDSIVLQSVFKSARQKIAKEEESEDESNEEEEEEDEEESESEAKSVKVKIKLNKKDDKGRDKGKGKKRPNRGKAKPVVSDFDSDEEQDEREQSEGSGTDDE
Consider `C[C@@]1(F)COCc2ccc(C(=O)NCc3cc4nc(-c5cccc(C6(O)CCOC6)n5)ccc4cn3)cc21` (stereo partly shown) [Compound 249], for which the “BRM Max % Inhibition” value worked out at 97%.

Take `C[C@@]1(F)COCc2ccc(C(=O)NCc3cc4nc(-c5cncc(C6CC6)n5)ccc4cn3)cc21` [Compound 325]: the “BRM Max % Inhibition” value was determined as 101%.

For `Cc1cnc(CNC(=O)c2ccc3c(c2)[C@](C)(C#N)COC3)cc1C#Cc1ccccc1` [Compound 15], the “BRM Max % Inhibition” value is reported as 94%.

For the compound `C[C@@]1(F)COCc2ccc(C(=O)NCc3cc4nc(-c5cncc(N6CCC6)n5)ccc4nn3)cc21` [Compound 276], the “BRM Max % Inhibition” value turned out to be 98%.

`C[C@@]1(C#N)COCc2ccc(C(=O)NCc3cc(C#Cc4ccccc4)ccn3)cc21` [Compound 1]: the “BRM Max % Inhibition” value is 90%.

As for `C[C@@]1(F)COCc2ccc(C(=O)NCc3cc4nc(-c5ccnn(C6CC6)c5=O)ccc4cn3)cc21` [Compound 268], the “BRM Max % Inhibition” value is given as 97%.

Consider `C[C@@]1(C#N)COCc2ncc(C(=O)NCc3cc4nc(-c5cccc(C(F)F)c5)ccc4cn3)cc21` [Compound 500], for which the “BRM Max % Inhibition” value is 95%.

In the case of `COc1cccc(/C=C/c2ccnc(CNC(=O)c3ccc4c(c3)[C@](C)(C#N)COC4)c2)c1` [Compound 38], the “BRM Max % Inhibition” value was 97%.

As for `C[C@@]1(C#N)COCc2ccc(C(=O)NCc3cc4nc(-c5cn(C6COC6)nc5CC(F)F)ccc4cn3)cc21` [Compound 136], the “BRM Max % Inhibition” value is on record as 83%.

On to `COc1cccc(C#Cc2ccnc(CNC(=O)c3ccc4c(c3)[C@](C)(C#N)COC4)c2)c1` [Compound 2], for which the “BRM Max % Inhibition” value was 96%.

As to `C[C@@]1(C#N)COCc2ccc(C(=O)NCc3cc4nc(-c5ccnc(N6CC7CC7C6)n5)ccc4cn3)cc21` (stereo partly shown) [Compound 321], the “BRM Max % Inhibition” value was found to be 105%.

As for `C[C@@]1(C#N)COCc2ccc(C(=O)NCc3cc4nc(-c5ccnc([C@@H]6CC6(F)F)n5)ccc4cn3)cc21` [Compound 218], the “BRM Max % Inhibition” value was 99%.

Regarding `C[C@@]1(C#N)COCc2ccc(C(=O)NCc3cc4nc(-c5ccnc(C6CCC6)n5)ccc4cn3)cc21` [Compound 420], the “BRM Max % Inhibition” value came to 98%.

The assay is the same for the next values; noted with them: BRM ATPase: IC50 (uM), 30 nM BRM, 400 μM ATP.
For `C[C@@]1(F)COCc2ccc(C(=O)NCc3cc4nc(-c5cccc(C6(O)CCOC6)n5)ccc4cn3)cc21` (stereo partly shown) [Compound 249], the IC50 is 0.1 to 0.5 µM.

`C[C@@]1(F)COCc2ccc(C(=O)NCc3cc4nc(-c5cncc(C6CC6)n5)ccc4cn3)cc21` [Compound 325] gave an IC50 below 0.1 µM.

The compound `Cc1cnc(CNC(=O)c2ccc3c(c2)[C@](C)(C#N)COC3)cc1C#Cc1ccccc1` [Compound 15] came in with an IC50 of 0.5 to 1 µM.

As for `C[C@@]1(F)COCc2ccc(C(=O)NCc3cc4nc(-c5cncc(N6CCC6)n5)ccc4nn3)cc21` [Compound 276], the IC50 is below 0.1 µM.

Compound `C[C@@]1(C#N)COCc2ccc(C(=O)NCc3cc(C#Cc4ccccc4)ccn3)cc21` [Compound 1] returned an IC50 of 0.1 to 0.5 µM.

As to `C[C@@]1(F)COCc2ccc(C(=O)NCc3cc4nc(-c5ccnn(C6CC6)c5=O)ccc4cn3)cc21` [Compound 268], the IC50 lay within 0.1 to 0.5 µM.

`C[C@@]1(C#N)COCc2ncc(C(=O)NCc3cc4nc(-c5cccc(C(F)F)c5)ccc4cn3)cc21` [Compound 500] showed an IC50 below 0.1 µM.

As for `COc1cccc(/C=C/c2ccnc(CNC(=O)c3ccc4c(c3)[C@](C)(C#N)COC4)c2)c1` [Compound 38], the IC50 is below 0.1 µM.

For the compound `C[C@@]1(C#N)COCc2ccc(C(=O)NCc3cc4nc(-c5cn(C6COC6)nc5CC(F)F)ccc4cn3)cc21` [Compound 136], the IC50 fell in the range of 0.1 to 0.5 µM.

`COc1cccc(C#Cc2ccnc(CNC(=O)c3ccc4c(c3)[C@](C)(C#N)COC4)c2)c1` [Compound 2] displayed an IC50 of 0.1 to 0.5 µM.

For `C[C@@]1(C#N)COCc2ccc(C(=O)NCc3cc4nc(-c5ccnc(N6CC7CC7C6)n5)ccc4cn3)cc21` (stereo partly shown) [Compound 321], the IC50 was below 0.1 µM.

On to `C[C@@]1(C#N)COCc2ccc(C(=O)NCc3cc4nc(-c5ccnc([C@@H]6CC6(F)F)n5)ccc4cn3)cc21` [Compound 218], for which the IC50 was below 0.1 µM.

Turning to `C[C@@]1(C#N)COCc2ccc(C(=O)NCc3cc4nc(-c5ccnc(C6CCC6)n5)ccc4cn3)cc21` [Compound 420], the IC50 is below 0.1 µM.

A further assay addresses BRG-1 (Homo sapiens, UniProt P51532). Briefly: ATPase catalytic activity assay (ADP-Glo), BRG-1.
Conditions: not given
For the compound `C[C@@]1(F)COCc2ccc(C(=O)NCc3cc4nc(-c5cccc(C6(O)CCOC6)n5)ccc4cn3)cc21` (stereo partly shown) [Compound 249], the IC50 lay within 0.5 to 1 µM.

For `C[C@@]1(F)COCc2ccc(C(=O)NCc3cc4nc(-c5cncc(C6CC6)n5)ccc4cn3)cc21` [Compound 325], the IC50 is 0.1 to 0.5 µM.

In the case of `Cc1cnc(CNC(=O)c2ccc3c(c2)[C@](C)(C#N)COC3)cc1C#Cc1ccccc1` [Compound 15], the IC50 is above 1 µM.

Consider `C[C@@]1(F)COCc2ccc(C(=O)NCc3cc4nc(-c5cncc(N6CCC6)n5)ccc4nn3)cc21` [Compound 276], for which the IC50 was 0.1 to 0.5 µM.

In the case of `C[C@@]1(C#N)COCc2ccc(C(=O)NCc3cc(C#Cc4ccccc4)ccn3)cc21` [Compound 1], the IC50 was above 1 µM.

`C[C@@]1(F)COCc2ccc(C(=O)NCc3cc4nc(-c5ccnn(C6CC6)c5=O)ccc4cn3)cc21` [Compound 268]: the IC50 lay in the range of 0.5 to 1 µM.

With `C[C@@]1(C#N)COCc2ncc(C(=O)NCc3cc4nc(-c5cccc(C(F)F)c5)ccc4cn3)cc21` [Compound 500], the IC50 lay within 0.5 to 1 µM.

Compound `COc1cccc(/C=C/c2ccnc(CNC(=O)c3ccc4c(c3)[C@](C)(C#N)COC4)c2)c1` [Compound 38] gave an IC50 above 1 µM.

On to `C[C@@]1(C#N)COCc2ccc(C(=O)NCc3cc4nc(-c5cn(C6COC6)nc5CC(F)F)ccc4cn3)cc21` [Compound 136], for which the IC50 is above 1 µM.

Compound `COc1cccc(C#Cc2ccnc(CNC(=O)c3ccc4c(c3)[C@](C)(C#N)COC4)c2)c1` [Compound 2] displayed an IC50 above 1 µM.

Consider `C[C@@]1(C#N)COCc2ccc(C(=O)NCc3cc4nc(-c5ccnc(N6CC7CC7C6)n5)ccc4cn3)cc21` (stereo partly shown) [Compound 321], for which the IC50 was 0.1 to 0.5 µM.

In turn, `C[C@@]1(C#N)COCc2ccc(C(=O)NCc3cc4nc(-c5ccnc([C@@H]6CC6(F)F)n5)ccc4cn3)cc21` [Compound 218] displayed an IC50 of 0.5 to 1 µM.

In turn, `C[C@@]1(C#N)COCc2ccc(C(=O)NCc3cc4nc(-c5ccnc(C6CCC6)n5)ccc4cn3)cc21` [Compound 420] displayed an IC50 of 0.1 to 0.5 µM.

Staying with this assay, now noted: 1 h, read-out: BRG1 Max % Inhibition, ADP-Glo, 30 nM BRG-1, 400 μM ATP.
Regarding `C[C@@]1(F)COCc2ccc(C(=O)NCc3cc4nc(-c5cccc(C6(O)CCOC6)n5)ccc4cn3)cc21` (stereo partly shown) [Compound 249], the Emax was determined as 71%.

In the case of `C[C@@]1(F)COCc2ccc(C(=O)NCc3cc4nc(-c5cncc(C6CC6)n5)ccc4cn3)cc21` [Compound 325], the Emax turned out to be 90%.

For the compound `Cc1cnc(CNC(=O)c2ccc3c(c2)[C@](C)(C#N)COC3)cc1C#Cc1ccccc1` [Compound 15], the Emax came out at 64%.

As to `C[C@@]1(F)COCc2ccc(C(=O)NCc3cc4nc(-c5cncc(N6CCC6)n5)ccc4nn3)cc21` [Compound 276], the Emax was 95%.

As for `C[C@@]1(C#N)COCc2ccc(C(=O)NCc3cc(C#Cc4ccccc4)ccn3)cc21` [Compound 1], the Emax amounted to 56%.

For `C[C@@]1(F)COCc2ccc(C(=O)NCc3cc4nc(-c5ccnn(C6CC6)c5=O)ccc4cn3)cc21` [Compound 268], the Emax was 67%.

In the case of `C[C@@]1(C#N)COCc2ncc(C(=O)NCc3cc4nc(-c5cccc(C(F)F)c5)ccc4cn3)cc21` [Compound 500], the Emax was determined as 83%.

As to `COc1cccc(/C=C/c2ccnc(CNC(=O)c3ccc4c(c3)[C@](C)(C#N)COC4)c2)c1` [Compound 38], the Emax came out at 86%.

As to `C[C@@]1(C#N)COCc2ccc(C(=O)NCc3cc4nc(-c5cn(C6COC6)nc5CC(F)F)ccc4cn3)cc21` [Compound 136], the Emax was 25%.

Turning to `COc1cccc(C#Cc2ccnc(CNC(=O)c3ccc4c(c3)[C@](C)(C#N)COC4)c2)c1` [Compound 2], the Emax was determined as 65%.

Turning to `C[C@@]1(C#N)COCc2ccc(C(=O)NCc3cc4nc(-c5ccnc(N6CC7CC7C6)n5)ccc4cn3)cc21` (stereo partly shown) [Compound 321], the Emax turned out to be 95%.

For `C[C@@]1(C#N)COCc2ccc(C(=O)NCc3cc4nc(-c5ccnc([C@@H]6CC6(F)F)n5)ccc4cn3)cc21` [Compound 218], the Emax turned out to be 79%.

Regarding `C[C@@]1(C#N)COCc2ccc(C(=O)NCc3cc4nc(-c5ccnc(C6CCC6)n5)ccc4cn3)cc21` [Compound 420], the Emax is 89%.
